Calls of active or inactive are those of the source.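 How the source made its calls: active means Compounds that kill half the cells at a concentration of 5 micromolar or below, from the fitted or estimated CC50; inactive means CC50 above 5 micromolar.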
System: Jurkat E6.1 viability, ATP luminescence, 48 h
Assay: viability loss in Jurkat T cells – cell-based, ATP luminescence, 48 h, 60K MLSMR, cytotoxicity control, dose response (AID 464)

Compound	CC50
COc1ccccc1N1CCN(Cc2cc(Br)c(O)c3ncccc23)CC1	7.73 µM (inactive)
Clc1ccc(C2=Nn3c(nnc3-c3n[nH]c4c3CCC4)SC2)cc1	1.64 µM
COc1ccc(-c2nnc(SCC(=O)Nc3ncc(C)s3)n2-c2ccccc2)cc1OC	9.26 µM (inactive)
Cc1cc(C(=O)OCC(=O)NCc2ccco2)c(C)n1-c1ccccc1	2.68 µM
Cc1ccc(OCCN2CCN(C(=O)CCC(=O)Nc3nnc(C(C)C)s3)CC2)cc1	5.08 µM (inactive)
COc1cccc(OC)c1C1=NCC(=O)Nc2c1oc1ccc(Br)cc21	0.693 µM
CCOc1cc(N2CCOCC2)c(OCC)cc1NS(=O)(=O)c1ccc(Cl)s1	1.84 µM
CNC(=O)N(C1=NCC(C)(C)S1)c1ccc(F)c(Cl)c1	10.4 µM (inactive)
COc1cc(C2C3=C(Nc4ncnn42)c2ccccc2CC3)cc(OC)c1OC (stereo not given)	3.67 µM
CCCCCN=Cc1c(C)[nH]n(-c2nc3ccccc3s2)c1=O	6.35 µM (inactive)
CCOc1ccc(S(=O)(=O)n2cnc3cc(C)c(C)cc32)cc1	4.83 µM
Cc1nn(Cc2c(Cl)cccc2Cl)c(C)c1NC(=O)c1cc(C(C)C)on1	> 40 µM (inactive)
N#Cc1c(NCc2ccccc2)ccnc1NCc1cccnc1	4.17 µM
O=C(Nc1ccc2oc(Cc3ccc(Cl)cc3)nc2c1)c1cccnc1	27.8 µM (inactive)
O=C(Nc1ccc(N2CCCC2)cc1)c1cccc(F)c1	8.17 µM (inactive)
CCOc1ccccc1C1CC(=O)NC2=C1C(=O)CCC2 (stereo not given)	3.6 µM
Cc1cc(C)cc(NC2=NC3(CCCCC3)N=C(N)N2)c1	4.97 µM
COc1cccc2sc(Nc3nnc(-c4cccs4)o3)nc12	10.6 µM (inactive)
COc1ccc(C2CC(c3c(O)cc(C)oc3=O)=NCCS2)c(OC)c1 (stereo not given)	0.318 µM
CN(C)c1ccc(C(=O)c2ccc(N(C)C)c(N)c2)cc1N	8.53 µM (inactive)
COc1ccc(C(=O)C(CN2CCOCC2)c2ccccc2)cc1F (stereo not given)	5.09 µM (inactive)
O=S1(=O)C=C(Sc2nc3cc(Cl)ccc3o2)c2ccccc21	9.93 µM (inactive)
Cc1nn(-c2ccccc2)c(C)c1C(=O)OCC(=O)c1c(N)n(CC(C)C)c(=O)n(C)c1=O	9.53 µM (inactive)
CCOC(=O)c1nc(S(C)(=O)=O)ncc1Cl	4.66 µM
O=C(NCC(c1cccs1)N1CCOCC1)c1ccc(Cl)s1 (stereo not given)	0.882 µM
Cc1cc(C)cc(NS(=O)(=O)c2ccc3[nH]cc(C(=O)NCc4ccco4)c(=O)c3c2)c1	5.48 µM (inactive)
CC(=O)Nc1ccc(S(=O)(=O)N2CCCc3ccccc32)cc1	3.07 µM

Compound	CC50
Cn1c(=O)n(C)c2cc(NS(=O)(=O)c3ccc4c(c3)CCCC4)ccc21	8.18 µM (inactive)
Brc1ccc(C2=Nn3c(nnc3-c3n[nH]c4c3CCC4)SC2)cc1	0.313 µM
Cc1ccc(S(=O)(=O)C2(S(=O)(=O)c3ccc(C)cc3)CCCC2)cc1	3.23 µM
CCC(=O)Nc1nc2ccccc2n1Cc1ccc(C)cc1	> 40 µM (inactive)
C=CCOC(=O)c1[nH]c2c(c1C)C(=O)CC(c1cc(OC)c(OC)c(OC)c1)C2 (stereo not given)	24 µM (inactive)
CC1Cc2cc(-c3csc(NC(=O)Cc4cccs4)n3)ccc2N1S(C)(=O)=O (stereo not given)	5.23 µM (inactive)
COc1cc(C(=O)N2CCN(c3cccc(C)c3C)CC2)cc(OC)c1OC	0.37 µM
CCN(CC)S(=O)(=O)c1cc(C(=O)Nc2ccncc2)ccc1Cl	8.55 µM (inactive)
CCOC(=O)C1CCCN(C(=O)c2cc3c(-c4cccc(OC)c4)nn(C)c3s2)C1 (stereo not given)	9.76 µM (inactive)
COc1cc(Cn2c(-c3nonc3N)nc3ccccc32)ccc1C	1.55 µM
Oc1ccc(Cl)cc1CNc1ccc(Br)cn1	> 40 µM (inactive)
COc1ccccc1-n1cnc(N)c1C(=O)c1ccccc1	> 4.4 µM (inactive)
Oc1c(C(Nc2nc3ccccc3s2)c2ccco2)ccc2cccnc12 (stereo not given)	7.79 µM (inactive)
C=C(C)COc1ccc(-c2[nH]ncc2-c2ccc(OC)c(OC)c2)c(O)c1	0.782 µM
Cc1ccc2c(CC(=O)NCc3ccco3)coc2c1C	7.99 µM (inactive)
COc1ccc(-c2nc3cc(NC(=O)Cc4ccc(OC)c(OC)c4)ccc3o2)cc1	> 40 µM (inactive)
COc1ccccc1N1CCN(C(=O)c2c(-c3ccccc3)noc2C)CC1	2.92 µM
O=C(c1cccc(C(=O)N2CCN(c3ccc(F)cc3)CC2)c1)N1CCN(c2ccc(F)cc2)CC1	> 40 µM (inactive)
COc1ccccc1N1CCN(C(=O)CSc2nnc3n2C(C)(C)Cc2ccccc2-3)CC1	4.67 µM
CCc1nnc(NC(=O)c2ccc(S(=O)(=O)N(CC)Cc3ccccc3)cc2)o1	26 µM (inactive)
O=C(Cn1cnc2c(cnn2-c2ccc(F)cc2)c1=O)NCc1ccco1	> 4.4 µM (inactive)
COCCCN1C(=O)c2[nH]nc(-c3ccccc3O)c2C1c1cccc(Cl)c1 (stereo not given)	3.39 µM
COc1ccc(N(CC(=O)Nc2cc(Cl)ccc2OC)S(=O)(=O)c2c(C)noc2C)cc1	2.97 µM
CCCc1[nH]nc2c1C(c1ccc(Br)s1)C(C#N)=C(N)O2 (stereo not given)	> 13 µM (inactive)
Cc1cc(NC(c2cccnc2)c2ccc3cccnc3c2O)no1 (stereo not given)	3.25 µM
CC(C)Oc1ccccc1C1CC(=O)Nc2cc3c(cc21)OCO3 (stereo not given)	0.812 µM
COc1ccc(-c2n[nH]c(C)c2-c2ccc(OC)c(OC)c2)c(O)c1	> 4.4 µM (inactive)

Compound	CC50
CCOC(=O)c1c(C)c(C(=O)Nc2ccc3c(c2)OCCO3)c(C)n1CC	7.96 µM (inactive)
O=S(=O)(CCSc1nc2ccccc2o1)c1nc2ccccc2s1	7.25 µM (inactive)
O=C(Cn1cnc2sc(-c3ccccc3)cc2c1=O)NCc1ccco1	6 µM (inactive)
Cc1ccccc1-n1ncc2c(SCC(=O)NCc3cccs3)ncnc21	5.39 µM (inactive)
CC(C)c1cc(C(=O)Nc2sc3c(c2C#N)CCC3)no1	15.6 µM (inactive)
c1ccc(-c2nc(N3CCCCCC3)c3ccccc3n2)nc1	10.1 µM (inactive)
Oc1ccc(N=Cc2ccc(O)c(O)c2)cc1	25.9 µM (inactive)
CCOc1ccc(C2=Nn3c(nnc3-c3ccc(OC)cc3)SC2)cc1	0.841 µM
C=CCN(CC=C)S(=O)(=O)c1ccc2nc(NC(=O)C(C)C)sc2c1	3.72 µM
O=C(Nc1nc(-c2nc3ccccc3s2)cs1)c1ccc(S(=O)(=O)N2CCOCC2)cc1	> 40 µM (inactive)
c1ccc(C(Cc2nc(-c3ccncc3)no2)c2ccccc2)cc1	8.52 µM (inactive)
COC(=O)Nc1ccc(S(=O)(=O)N2c3ccccc3CCC2C)cc1 (stereo not given)	2.19 µM
CSCCOC(=O)c1[nH]c2c(c1C)C(=O)CC(c1ccco1)C2 (stereo not given)	1.67 µM
C/C(N)=C(/C#N)C(=O)CSc1nnnn1-c1ccc(C)cc1C	> 40 µM (inactive)
O=C(NCc1cccnc1)c1c[nH]c2cc3c(cc2c1=O)OCCO3	1.09 µM
N=c1c2c(n(Cc3ccc(Cl)cc3Cl)c3c1CCC3)CCCC2	2.26 µM
CC(=O)Oc1ccc(Oc2ccc(-c3noc(C)n3)cc2)cc1	> 40 µM (inactive)
CCCCn1c2c(c(=N)c3c1CCC3)CCC2	3.9 µM
Cn1nc(CC(=O)Nc2ccc(N3CCN(C(=O)OC(C)(C)C)CC3)cc2)c2ccccc2c1=O	> 13 µM (inactive)
Cc1cc(C(=O)CSc2nnc(-c3cccc(F)c3)n2N)c(C)n1Cc1ccc2c(c1)OCO2	9.37 µM (inactive)
COCCOC(=O)c1[nH]c2c(c1C)C(=O)CC(c1cc(OC)ccc1OC)C2 (stereo not given)	4.2 µM
CCCCC(=O)Nc1ccc(C(=O)NCCCn2ccnc2)cc1	> 4.4 µM (inactive)
O=S(=O)(C/C(=C/CO)S(=O)(=O)c1ccccc1)c1ccccc1	2.2 µM
Cc1onc(-c2ccccc2Cl)c1C(=O)N1CCN(c2cccc(Cl)c2)CC1	0.832 µM
Cc1ccc(C2c3c(-c4ccccc4O)n[nH]c3C(=O)N2Cc2ccncc2)cc1 (stereo not given)	6.79 µM (inactive)
COc1ccc(C(O)c2nc3ccccc3n2C)cc1OC (stereo not given)	5.83 µM (inactive)
COc1cccc(C(=O)Nc2ncc3c(n2)CC(c2ccc(OC)cc2OC)CC3=O)c1 (stereo not given)	8.19 µM (inactive)

Compound	CC50
Cc1noc(C)c1CSc1nc2[nH]ncc2c(=O)n1-c1ccccc1	0.188 µM
CCCCN(C)S(=O)(=O)c1ccc(C(=O)Nc2nnc(-c3cccs3)o2)cc1	14.1 µM (inactive)
CCOC(=O)C(C)Sc1nc2c(cnn2-c2ccc(C)cc2)c(=O)[nH]1 (stereo not given)	> 40 µM (inactive)
O=S(=O)(NCc1ccncc1)c1ccc(Br)s1	1 µM
O=C(Nc1ccncc1)C1CCCN(S(=O)(=O)c2cccc3cccnc23)C1 (stereo not given)	1.42 µM
O=C(NCc1cccc(F)c1)c1noc2c1CCCC2	8.73 µM (inactive)
CC1CCCCN1S(=O)(=O)c1ccc(C(=O)Nc2nnc(-c3cccs3)o2)cc1 (stereo not given)	13.7 µM (inactive)
CCOC(=O)C(C)Oc1cccc2c(=O)n(CC(=O)NCc3ccco3)ccc12 (stereo not given)	1.1 µM
CC(=O)c1cc2c(cc1NS(=O)(=O)c1ccc(C)cc1)OCCO2	5.05 µM (inactive)
Cc1cc(=O)oc2cc(OCC(=O)N3c4ccccc4CC3C)ccc12 (stereo not given)	0.756 µM
CCCOc1ccccc1C1CC(=O)Nc2cc3c(cc21)OCCO3 (stereo not given)	0.745 µM
CCOc1ccccc1NC(=O)c1cccc(NC(=O)c2ccco2)c1	1.27 µM
O=C(CSc1ncnc2sc3c(c12)CCCCC3)NCc1ccco1	9.83 µM (inactive)
O=c1c2ccccc2nnn1CSc1nnc(-c2cccs2)n1Cc1ccccc1	> 40 µM (inactive)
CC1CN(S(=O)(=O)c2ccc(NC(=O)c3cc(-c4ccccc4O)n[nH]3)cc2)CC(C)O1 (stereo not given)	> 13 µM (inactive)
O=C(NCc1cccs1)c1noc2c1CCCC2	7.48 µM (inactive)
COc1ccc(Nc2nc(N3CCCC3)nc3ccccc23)c(OC)c1	21.9 µM (inactive)
CC1=C(C)CS(=O)N(S(=O)(=O)c2ccc(Cl)cc2)C1 (stereo not given)	2.96 µM
CC(=O)N1CCc2c(sc(NC(=O)c3ccc4c(c3)OCCO4)c2C#N)C1	2.6 µM
CCN(Cc1ccccc1)S(=O)(=O)c1ccc(C(=O)Nc2nnc(C3CC3)o2)cc1	32.5 µM (inactive)
CCN(CC)c1ccc2c(c1)OC(N)=C(C#N)C2c1cccnc1 (stereo not given)	0.0192 µM
CCOc1cc(N2CCOCC2)c(OCC)cc1NC(=O)COc1cccc2cccnc12	9.13 µM (inactive)
COc1ccccc1-c1cc(C(=O)Nc2cc(C)nn2-c2ccccc2)no1	6.14 µM (inactive)
Cc1cc(NC(=O)CCS(=O)(=O)c2nc(-c3ccccc3)cc(C(F)(F)F)n2)no1	5.13 µM (inactive)
